Drawing on article PMC6045374 (ACS Omega, 2018), this text covers Ki for one compound.

Assay [1] concerns the target T1, homoserine kinase (CglThrB-A20G) (Corynebacterium glutamicum, UniProt P07128, A20G).
T1 sequence (P07128 1-309 A20G): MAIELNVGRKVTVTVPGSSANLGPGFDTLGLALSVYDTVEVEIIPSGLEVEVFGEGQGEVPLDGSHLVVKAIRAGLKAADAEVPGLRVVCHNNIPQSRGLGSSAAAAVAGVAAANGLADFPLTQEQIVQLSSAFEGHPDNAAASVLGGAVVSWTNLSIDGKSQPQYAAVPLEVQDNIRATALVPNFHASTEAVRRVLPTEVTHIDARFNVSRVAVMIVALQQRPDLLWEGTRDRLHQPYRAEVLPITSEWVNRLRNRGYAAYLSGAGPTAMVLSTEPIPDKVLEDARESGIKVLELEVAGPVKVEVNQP
Nature of the assay: steady-state enzyme kinetics, ADP colorimetric assay. The class given is biochemical.

For assay [2], the target named is T2, homoserine kinase (CglThrB-WT) (Corynebacterium glutamicum, UniProt P07128).
T2 sequence (P07128 2-309): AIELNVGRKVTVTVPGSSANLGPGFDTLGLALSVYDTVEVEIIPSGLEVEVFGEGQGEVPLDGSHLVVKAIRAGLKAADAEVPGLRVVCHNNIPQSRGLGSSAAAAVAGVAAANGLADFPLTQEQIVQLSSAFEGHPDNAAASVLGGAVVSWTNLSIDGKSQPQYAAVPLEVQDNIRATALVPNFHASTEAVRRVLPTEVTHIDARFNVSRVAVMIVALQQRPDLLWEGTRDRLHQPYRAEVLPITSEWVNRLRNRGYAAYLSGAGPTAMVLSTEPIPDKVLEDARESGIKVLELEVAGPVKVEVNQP
The assay is described as above. The class given is biochemical.

Structures are written as SMILES.

A word on the Ki: it is a dissociation constant, usually derived from enzyme kinetics or from competition with a known ligand. Low values mean higher affinity, high ones lower affinity. Take `C[C@@H](O)[C@H](N)C(=O)O` [L-threonine]: the inhibitory constant (Ki) was found to be 25.2 mM in assay [1] and 4.73 mM in assay [2].
